# Counter-ions that a name gives are not always drawn.
# Assays:
# [1] = system: Corynebacterium minutissimum (23348); assay: MIC test against skin microorganisms; type: cell-based; conditions: 48 hrs at 36° C., TSB first set, BHI second set
# Method: (§1) MICs for the organisms were determined using a standard 96-well microtiter plate assay in Trypic Soy Broth (TSB). […] Bacteria were grown in Tryptic Soy Broth or Brain Heart Infusion (E. hirae) for 24 hrs and were adjusted to one million cells per milliliter in same type of broth. Following incubation (48 hrs at 36° C.), the lowest concentration of test compound inhibiting growth was recorded as the Minimum Inhibitory Concentration (MIC). The actives were serially diluted and tested at final concentrations ranging from 156.3-0.61 ppm. MIC was run for two different sets.
# (§2) Bacteria were grown overnight in Tryptic Soy Brother (TSB) or Brain Heart Infusion (BHI) and were adjusted to approximately 1×10^6 colony forming units per ml (cfu/ml) and used to inoculate the wells. Final bacterial concentration in the test wells was 5×10^5 cfu/ml. For Corynebacterium spp, TSB was used for the first set and BHI for the second set. Inoculated microtiter plates were incubated at 36° C. for 48 hours.
# (§3) The lowest concentration of test compound inhibiting growth was recorded as the minimum inhibitory concentration.
# [2] = system: Corynebacterium xerosis (373); assay: MIC test against skin microorganisms; type: cell-based; conditions: 48 hrs at 36° C., TSB first set, BHI second set
# Method: as §1, §2, §3
# [3] = system: Staphylococcus epidermidis (12228); assay: MIC test against skin microorganisms; type: cell-based; conditions: 48 hrs at 36° C., two different sets
# Method: as §1, §2, §3
# [4] = system: Staphylococcus haemolyticus (29970); assay: MIC test against skin microorganisms; type: cell-based; conditions: 48 hrs at 36° C., two different sets
# Method: as §1, §2, §3
# [5] = system: mixed pool of bacteria (Staphylococcus epidermis, Corynebacterium minutissimum, Staphylococcus haemolyticus, Corynebacterium xerosis, Micrococcus luteus) on …; assay: Control of growth of skin microorganisms on pig skin; type: cell-based, skin bacteria on pig skin; conditions: 200 ppm in ethanol, 100 μl on pig skin, mixed bacterial pool, 35° C., 8 hour time period
# Method: To further investigate the potential of the bispyridine amine compounds of the present invention for use as antimicrobial active ingredients in personal care products and cosmetics, the efficacy of octenidine distearate in controlling growth of skin microorganisms compared to Cosmocil® S was evaluated using different skin mimics. Testing was performed using pig skin. Although alternatives, such as VITRO-SKIN®, offered a less variable test matrix, it was decided that testing on pig skin was a better model for this application, as the pig skin allowed for actual growth of bacteria on the surface, not merely the survival of bacteria on the surface, providing more representative user skin conditions. The typical skin microorganisms Staphylococcus epidermis (ATCC 12228), Corynebacterium minutissimum (ATCC 23348), Staphylococcus haemolyticus (ATCC 29970), Corynebacterium xerosis (ATCC 373), and Micrococcus luteus (ATCC 4698), were grown in Tryptic Soy Broth (TSB) at 35-37° C. for approximately 24 hours. Each bacterial suspension was diluted 1:50 in TSB and then inoculum was prepared by mixing equal volume of each bacterial suspension. The final inoculum was plated in TSA to get an accurate count and used as a mixed pool of bacteria. […] Plates were incubated at 35-37° C. for 48 hours before the colonies were counted, and the mean values calculated.
# [6] = system: EpiOcular™ Tissue Model (OCL-200); assay: MatTek EpiOcular MTT Viability Assay (ocular irritancy); type: cell-based, human
# Method: The MatTek EpiOcular™ MTT Viability Assay (MatTek Corp.) was utilized to assess ocular irritancy and toxicology of octenidine distearate and octenidine dihydrochloride. The assay was performed using the MatTek EpiOcular™ Tissue Model (OCL-200) as well as the Methyl thiazole tetrazolium (MT) Kit (MT-100). The EpiOcular™ Tissue Model closely parallels human ocular tissue, thus providing a useful in vitro method to assess ocular irritancy and toxicology.
# MTT Reduction: 704 μl of mineral oil were heated at 70° C. for 10 minutes.
# 0.3% Triton® X-100 (MatTek) (clear liquid) was used as a positive control. Tissue culture water (TCH20) (Sigma) (clear liquid) was used as a negative control. Mineral oil (Sigma) (clear liquid) was used as a vehicle control.
# Before use, tissues were incubated (37° C.±1° C., 5%±1% CO2) with assay medium (MatTek) for a one-hour equilibration. Equilibration medium was replaced with fresh medium before dosing.
# The test articles were diluted as described in the sample preparation above. 100 μl of the test article dilution were mixed with 1 ml of MTT solution (1 mg/ml MTT diluted in Dulbecco's Modified Eagle's Medium (DMEM). A negative control (100 μl of tissue culture water) and a vehicle control (100 μl of mineral oil) were tested concurrently. The solutions were incubated at room temperature in the dark for 60 minutes. After incubation, the solutions were visually inspected for purple coloration, which is a positive indication that the test article reduced MTT. Since tissue viability is based on MTT reduction, direct reduction by a test article can exaggerate viability, making a test article seem less irritating that it really is. […]
# At the end of the selected exposure periods, each EpiOcular™ tissue was rinsed with phosphate buffered saline (PBS), soaked for 10 minutes in assay medial and transferred to a 24-well plate containing 300 μl of MTT solution (1 mg/ml MTT in DMEM). […] An aliquot of the extracted MTT formazan was measured at 540 nm using a plate reader (μQuant Plate Reader, Bio-Tek Instruments, Winooski, Vt.), subtracting the absorbance at a reference wavelength of 690 nm.
# The mean absorbance value for each time point was calculated from the optical density (OD) of the duplicate samples and expressed as percent viability for each sample using the following formula: % viability=100×(OD sample/OD negative control or vehicle control) The ET50, the time at which the EpiOcular™ tissue viability was reduced 50% compared to control tissues, was then determined using a macro in Microsoft Excel 5.0, provided by MatTek, using the equation: V=a+b log t Where V=percent viability, t=time in hours, and a and b are constants that can be determined by using the viability data for two different exposure times of the text article to the tissue.
Compound,MIC (ppm) [1],MIC (ppm) [2],MIC (ppm) [3],MIC (ppm) [4],"efficacy in controlling growth of skin microorganisms (CFU/cm^2 of skin, FIG. 1) [5]",ET50 [6],ET50 (min) [6],Irritancy Classification [6]
"CCCCCCCCCCCCCCCCCC(=O)O.CCCCCCCCCCCCCCCCCC(=O)O.CCCCCCCCN=c1ccn(CCCCCCCCCCn2ccc(=NCCCCCCCC)cc2)cc1 [Octenidine distearate, octenidine distearate]",2.44-39.06 ppm,39.06 ppm,4.88-9.76 ppm,4.88-9.76 ppm,equally as effective as Cosmocil® S,>256.0 min,greater than 256.0 min,"Non-Irritating, minimal"
"CCCCCCCCN=c1ccn(CCCCCCCCCCn2ccc(=NCCCCCCCC)cc2)cc1 [Octenidine HCl, Octenidine dihydrochloride]",,,,,,,,Severe

# Source: patent US9687432B2, “Antimicrobial bispyridine amine compositions and uses” (LONZA INC., priority 2012, dated 2017)
